Assay results as given in patent publication US20210239681A1, “COMPOSITIONS AND METHODS FOR […] OF […]-BASED IMMUNOTHERAPEUTICS” (ADVAXIS, INC., priority 2018, published 2021).

Key:
Assay type in all cases: cell-based, human
[1] = test system: 9mer specific T cells; experiment: Co-culture of THP-1 with 9mer specific T cells, cytokine production; parameters: IFNγ / IL-10 / IL-12p70 / IL-13 / IL-1β / IL-2 / IL-5 / IL-6 / TNF-α: unit not given here; details: for IFNγ production, with 9mer specific T cells: Listeria MOI of 10, optical density
Excerpt: (§1) Analysis Kits and Reagents: Analysis of cytokine concentrations in culture medium used the U-plex assay kits from Meso Scale Discovery. Expression of T cell receptors specific for E7 peptide bound to HLA-A*02:01 was detected using HLA-A*02:01/peptide tetramers from MBL International (Woburn, Mass.).
(§2) There were several possible explanations for the muted response with THP-1 cells infected with ADSX11: including failure of THP-1 cells to process the 10mer epitope from full length E7 protein, failure of the THP-1 cells to present the processed 10mer E7 peptide on HLA-A*02:01, insufficient incubation of the infected cells to allow synthesis of the E7 protein and accumulation of the MHC/peptide complex on the cell surface, and/or an inhibitory effect of gentamicin. A culture of T cells specific for the 9mer epitope was used as well as a new culture of 10mer specific T cells. The THP-1 cells were infected as before with XFL7 or ADXS11-001 at an MOI of 10. After treatment with gentamicin for one hour, the cells were cultured overnight in the absence of gentamicin. The next day the infected cells were collected and co-cultured with 9mer or 10mer specific T cells. These co-cultures were set up in standard X-VIVO 15 and X-VIVO 15 without gentamicin or phenol red. The co-cultures were incubated overnight before collecting medium for cytokine analysis. The medium was tested for IFNγ concentrations and optical density. […] In addition, the 10mer specific T cells recognized ADXS11-001 infected THP-1 when there was no gentamicin in the medium.
(§3) To further explore the importance of the overnight incubation of infected THP-1, THP-1 cells infected overnight were compared to THP-1 cells infected for 2 hours. T cells specific for 9mer and 10mer peptides were co-cultured with each of the THP-1 cells and with uninfected or peptide exposed THP-1. As before, medium was collected after an overnight co-culture and cytokines were measured.
(§4) Optimization of infection time required for E7 presentation. THP-1 infected and cultured overnight compared to THP-1 infected for 2 hours and used after gentamicin treatment. Both 9-mer specific T cells and 10-mer specific T cells used. Assays were performed using X-VIVO 15 medium without gentamicin. The following cytokines were measured: IFNγ, IL-1β, IL-2, IL-10, IL-12p70, IL-13, IL-5, IL-6, TNFα.

[2] = test system: THP-1 cells; experiment: Intracellular cytokine staining of THP-1 cells; details: FIGS. 3A-3C, FIG. 10
Procedure: (§5) To identify cytokines that can be used to measure potency of a Listeria-based therapeutic the following tests were performed. Intracellular cytokine staining was used to detect T cells specificity. THP-1 were incubated with peptide overnight, mixed with T cells from above and centrifuged. The collected cells were then co-cultured at 37° C. for 1 hour. Brefeldin A was then added and the cells were co-cultured for another 4 hours. Brefeldin A inhibits secretion and permits analysis by flow cytometry. Cell were then stained to identify dead cells and CD8+ cells. The cell were then fixed and stained for IFNγ (using fix and permeabilization buffer from eBioscience/Invitrogen).
Intracellular cytokine staining of THP-1 cells.

[3] = test system: 10mer specific T cells; experiment: Co-culture of THP-1 with 10mer specific T cells, cytokine production; parameters: IFNγ / IL-10 / IL-13 / IL-1β / IL-2 / IL-5 / IL-6 / TNF-α: unit not given here; details: for IFNγ production, with 10mer specific T cells: Listeria MOI of 10, optical density
Excerpt: as §1, §2, §3, §4

[4] = test system: THP-1 cells; experiment: Cytokine production by THP-1 in the absence of T cells; details: Without gentamicin; Listeria MOI of 10; optical density
[5] = test system: T cells; experiment: Intracellular cytokine staining of T cells; details: Brefeldin A, FIG. 9
Procedure: as §5

[6] = test system: THP-1 cells; experiment: Cytokine production by THP-1 in the absence of T cells; parameters: IL-6: unit not given here
Procedure: as §1
Infection of THP-1: The THP-1 cell line was infected with either ADXS11-001 or XFL7 by incubating 10^6 cells with dilutions of bacteria in a 1 mL volume of RPMI 1640 10% FBS. […] After incubation with gentamicin the cells were washed again and resuspended to the desired cell concentration.
(§6) T cell cytokine expression analysis. An initial experiment using THP-1 as antigen presenting cells was performed using a T cell culture containing 6% E7 (11-20) specific T cells based upon staining with HLA-A*02:01/peptide tetramer. THP-1 cells were infected as described using two different concentrations of bacteria and then co-cultured with the T cells. Controls included uninfected THP-1 cells and THP-1 cells incubated with (exposed to) either the 9mer or 10mer peptide for one hour. After an overnight co-culture, medium was collected for analysis of cytokines.
as §3
Titration studies with different multiplicity of infection (MOI). THP cells were infected for 2 hours with 3 different dilutions (MOI) of Listeria. Infected or uninfected THP cells were then cultured overnight for 24 hours before co-culturing the T cells. Cells were co-cultured overnight before cytokine analysis.

[7] = test system: E7 (11-20) specific T cells; experiment: Initial THP-1 / T cell co-culture cytokine production (T cell culture with 6% E7 (11-20) specific T cells); parameters: IFNγ / TNF-α / IL-10 / IL-12p70 / IL-13 / IL-1β / IL-2 / IL-4 / IL-6 / IL-8: unit not given here; details: T cells and THP-1 incubated with peptide one hour; overnight co-culture
Procedure: as §1
Infection of THP-1: The THP-1 cell line was infected with either ADXS11-001 or XFL7 by incubating 10^6 cells with dilutions of bacteria in a 1 mL volume of RPMI 1640 10% FBS. Incubation with bacteria was at 37° C., 5% CO2 for the indicated times, then extracellular bacteria were eliminated by washing and incubation in the presence of 50 μg/mL gentamicin for 1 hour at 37° C. After incubation with gentamicin the cells were washed again and resuspended to the desired cell concentration.
as §6

[8] = test system: PBMC; experiment: Cytokine release by donor PBMC cultured with peptide; parameters: unit not given beside the values; details: release on antigen
Procedure: Peripheral blood mononuclear cells (PBMCs) samples were collected from three human HLA-A*02:01 donors: 358, 213, and 224. The peripheral blood mononuclear cells (PBMCs) were cultured with one of two E7 peptides: […] (9mer or 1T; SEQ ID NO: 100) or […] (10mer or 2T; SEQ ID NO: 101). After 10 days culture, the PBMCs were tested for E7 peptide binding staining and cytokine release.

[9] = 9mer T cells + peptide exposed THP-1, overnight co-culture
[10] = 10mer T cells + peptide exposed THP-1, overnight co-culture
[11] = THP-1 incubated with peptide, absence of T cells

With YMLDLQPET [9mer] the “IFNγ production, with 9mer specific T cells” value ([1]; 50 μg/mL gentamicin) was 0.177, the IFNγ [1, 9] was 4713 and the IL-1β [1, 9] was 0. The IL-2 [1, 9] was 18, the IL-5 [1, 9] was 0 and the IL-6 [1, 9] was 13. The IL-10 [1, 9] was 1, the IL-12p70 [1, 9] was 0 and the IL-13 [1, 9] was 3. For the same substance, the TNF-α [1, 9] was 74, the “IFNγ production, with 9mer specific T cells” value ([1]; Without gentamicin) was 0.117 and the “Basal IFNγ in THP-1 cells after stimulation with peptide” value [2] was “not detectable”. The “IFNγ production, with 10mer specific T cells” value ([3]; 50 μg/mL gentamicin) was 0.063, the IFNγ [3, 10] was 103 and the IL-1β [3, 10] was “<LLOD”. The IL-2 [3, 10] was “<LLOD”, the IL-5 [3, 10] was “<LLOD” and the IL-6 [3, 10] was “<LLOD”. The IL-10 [3, 10] was 0, the IL-12p70 [3, 10] was “<LLOD” and the IL-13 [3, 10] was “<LLOD”. For the same substance, the TNF-α [3, 10] was “<LLOD”, the “IFNγ production, with 10mer specific T cells” value ([3]; Without gentamicin) was 0.062 and the “IFNγ production, THP-1 alone” value [4] was 0.059. For the same substance, the “IFNγ in T cells after stimulation with peptide” value [5] was “detected”, the “IFNγ production, THP-1 alone” value ([6]; 50 μg/mL gentamicin, Listeria MOI of 10, optical density) was 0.064 and the IFNγ ([6]; THP-1 alone, peptide exposed) was “<LLOD”. The IL-1β ([6]; THP-1 alone, peptide exposed) was “<LLOD”, the IL-2 ([6]; THP-1 alone, peptide exposed) was “<LLOD” and the IL-5 ([6]; THP-1 alone, peptide exposed) was “<LLOD”. The IL-6 ([6]; THP-1 alone, peptide exposed) was “<LLOD”, the IL-10 ([6]; THP-1 alone, peptide exposed) was “<LLOD” and the IL-12p70 ([6]; THP-1 alone, peptide exposed) was “<LLOD”. For the same substance, the IL-13 ([6]; THP-1 alone, peptide exposed) was “<LLOD”, the TNF-α ([6]; THP-1 alone, peptide exposed) was 0 and the IFNγ [6, 11] was “<LLOD”. The IL-1β [6, 11] was 0.0, the IL-2 [6, 11] was “<LLOD” and the IL-4 [6, 11] was “<LLOD”. For the same substance, the IL-6 [6, 11] was “<LLOD”, the IL-8 [6, 11] was 7.3 and the IL-10 [6, 11] was “<LLOD”. For the same substance, the IL-12p70 [6, 11] was “<LLOD”, the IL-13 [6, 11] was “<LLOD” and the TNF-α [6, 11] was “<LLOD”. For the same substance, the IFNγ [7] was 1508.2, the IL-1β [7] was 1.0 and the IL-2 [7] was 3.7. The IL-4 [7] was 0.2, the IL-6 [7] was 4.2 and the IL-8 [7] was 405.7. For the same substance, the IL-10 [7] was 2.1, the IL-12p70 [7] was “<LLOD” and the IL-13 [7] was 120.3. The TNF-α [7] was 57.1, the “IFNγ Mean” value ([8]; donor 213 PBMC cultured with 1T peptide) was 242.6 and the “IFNγ Mean” value ([8]; donor 358 PBMC stimulated with 1T) was 1642.7. The “IFNγ Mean” value ([8]; donor 358 PBMC stimulated with 2T) was 352.4.

With gentamicin the “effect of gentamicin in the culture medium on antigen presentation” value ([3]; Listeria-based infection of THP-1, 50 μg/mL) was “inhibits expression of E7 or antigen presentation”.
